Data taken from the supplement of paper PMC10307832.

Compound: CN(C)C/C=C/C(=O)Nc1cc2c(Nc3ccc(F)c(Cl)c3)ncnc2cc1O[C@H]1CCOC1 [Afatinib] + CS(=O)(=O)N1CCN(Cc2cc3nc(-c4cccc5[nH]ncc45)nc(N4CCOCC4)c3s2)CC1 [Pictilisib] (partner 1 µM)
Assay: relative viability (nuclei count vs DMSO), 5 days (fraction); higher = more cells survive
Outline: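 Dosing by pin tool came one day after lung cancer cell lines were seeded in 1536-well plates, using either one drug or a fixed anchor-drug dose plus five library-drug doses (not always all listed) in √10 steps. After 5 days, nuclei were counted on 4× images. Relative viability is treated-well nuclei count divided by vehicle-well nuclei count, and values are medians of duplicate plates.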

Cell Line | relative viability (first compound 0.005 µM) | relative viability (first compound 0.01581 µM) | relative viability (first compound 0.05 µM) | relative viability (first compound 0.1581 µM) | relative viability (first compound 0.5 µM)
201T | 0.682 | 0.658 | 0.662 | 0.659 | 0.698
A549 | 0.499 | 0.416 | 0.478 | 0.389 | 0.442
A-427 | 0.729 | 0.684 | 0.587 | 0.774 | 0.658
ABC-1 | 0.816 | 0.52 | 0.679 | 0.578 | 0.762
BEN | 0.563 | 0.532 | 0.565 | 0.601 | 0.589
CAL-12T | 0.389 | 0.393 | 0.347 | 0.447 | 0.27
COR-L23 | 0.689 | 0.762 | 0.854 | 0.955 | 0.853
COR-L 105 | 0.359 | 0.355 | 0.302 | 0.252 | 0.35
Calu-6 | 0.999 | 0.941 | 1.01 | 0.964 | 0.989
ChaGo-K-1 | 0.893 | 0.45 | 0.757 | 0.583 | 0.88
EBC-1 | 0.391 | 0.386 | 0.465 | 0.358 | 0.372
EKVX | 0.391 | 0.346 | 0.203 | 0.118 | 0.104
EMC-BAC-2 | 0.516 | 0.531 | 0.544 | 0.529 | 0.496
EPLC-272H | 0.342 | 0.301 | 0.297 | 0.324 | 0.348
H3255 | 0.173 | 0.118 | 0.132 | 0.11 | 0.104
HARA | 0.429 | 0.331 | 0.16 | 0.206 | 0.195
HCC-15 | 0.806 | 0.72 | 0.647 | 0.714 | 0.66
HCC-44 | 0.619 | 0.619 | 0.638 | 0.514 | 0.533
HCC-78 | 0.207 | 0.189 | 0.19 | 0.218 | 0.173
HCC-366 | 0.143 | 0.123 | 0.224 | 0.134 | 0.191
HCC-827 | 0.295 | 0.324 | 0.312 | 0.37 | 0.226
HOP-62 | 0.802 | 0.688 | 0.757 | 0.662 | 0.639
IA-LM | 0.251 | 0.221 | 0.227 | 0.198 | 0.212
LC-2-ad | 0.617 | 0.427 | 0.439 | 0.359 | 0.375
LCLC-97TM1 | 0.27 | 0.182 | 0.182 | 0.144 | 0.15
LCLC-103H | 0.621 | 0.572 | 0.642 | 0.62 | 0.482

Cell Line | relative viability (first compound 0.005 µM) | relative viability (first compound 0.01581 µM) | relative viability (first compound 0.05 µM) | relative viability (first compound 0.1581 µM) | relative viability (first compound 0.5 µM)
LK-2 | 0.546 | – | 0.485 | 0.596 | 0.535
LOU-NH91 | 0.492 | 0.49 | 0.541 | 0.498 | 0.501
LU99A | 0.345 | 0.395 | 0.308 | 0.349 | 0.295
LXF-289 | 0.829 | 0.701 | 0.695 | 0.706 | 0.777
NCI-H23 | 0.543 | 0.52 | 0.501 | 0.424 | 0.398
NCI-H322M | 0.441 | 0.396 | 0.351 | 0.327 | 0.279
NCI-H358 | 0.305 | 0.241 | 0.279 | 0.288 | 0.269
NCI-H441 | 0.431 | 0.504 | 0.436 | 0.481 | 0.31
NCI-H460 | 0.371 | 0.39 | 0.339 | 0.35 | 0.343
NCI-H520 | 0.353 | 0.304 | 0.208 | 0.232 | 0.233
NCI-H596 | 0.35 | 0.394 | 0.4 | 0.384 | 0.415
NCI-H647 | 0.407 | – | 0.457 | 0.459 | 0.453
NCI-H650 | 0.889 | 0.793 | 1 | 1.09 | 0.924
NCI-H661 | 0.386 | 0.301 | 0.318 | 0.313 | 0.249
NCI-H727 | 0.315 | 0.401 | 0.306 | 0.279 | 0.281
NCI-H838 | 0.441 | 0.462 | 0.453 | 0.497 | 0.524
NCI-H1299 | 0.84 | 0.828 | 0.927 | 0.647 | 0.68
NCI-H1355 | 0.39 | 0.467 | 0.482 | 0.36 | 0.21
NCI-H1395 | 0.658 | 0.515 | 0.723 | 0.624 | 0.551
NCI-H1437 | 0.489 | 0.407 | 0.378 | 0.468 | 0.471
NCI-H1563 | 0.6 | 0.644 | 0.683 | 0.637 | 0.657
NCI-H1650 | 0.589 | – | 0.553 | 0.487 | 0.545
NCI-H1651 | 0.58 | 0.533 | 0.546 | 0.553 | 0.449
NCI-H1666 | 0.329 | 0.252 | 0.344 | – | 0.345
NCI-H1703 | 0.239 | 0.246 | 0.263 | 0.23 | 0.205
NCI-H1734 | 0.479 | 0.467 | 0.486 | 0.438 | 0.416

Cell Line | relative viability (first compound 0.005 µM) | relative viability (first compound 0.01581 µM) | relative viability (first compound 0.05 µM) | relative viability (first compound 0.1581 µM) | relative viability (first compound 0.5 µM)
NCI-H1755 | 0.433 | 0.435 | 0.41 | 0.368 | 0.358
NCI-H1792 | 0.303 | 0.325 | 0.255 | 0.241 | 0.243
NCI-H1793 | 0.36 | 0.23 | 0.362 | 0.39 | 0.31
NCI-H1915 | 1.05 | 0.993 | 0.951 | 0.912 | 0.855
NCI-H1944 | 0.387 | 0.307 | 0.335 | 0.319 | 0.335
NCI-H1975 | 0.293 | 0.185 | 0.164 | 0.17 | 0.0947
NCI-H1993 | 0.93 | 0.937 | 0.983 | 1.03 | 0.868
NCI-H2009 | 0.875 | 0.822 | 0.95 | 0.786 | 0.74
NCI-H2023 | 0.248 | 0.233 | 0.261 | 0.216 | 0.239
NCI-H2085 | 0.486 | 0.438 | 0.459 | 0.494 | 0.435
NCI-H2087 | 1.12 | 0.907 | 0.86 | 0.904 | 0.72
NCI-H2126 | 0.487 | 0.447 | 0.36 | 0.436 | 0.37
NCI-H2170 | 0.285 | 0.228 | 0.237 | 0.185 | 0.209
NCI-H2228 | 0.343 | 0.45 | 0.381 | – | 0.279
NCI-H2347 | 0.737 | 0.665 | 0.672 | 0.596 | 0.841
NCI-H2405 | 0.445 | 0.47 | 0.611 | 0.473 | 0.57
NCI-H3122 | 0.558 | 0.628 | 0.663 | 0.557 | 0.621
PC-3 [JPC-3] | 0.429 | 0.323 | 0.339 | 0.3 | 0.355
PC-14 | 0.109 | 0.0863 | 0.108 | 0.0958 | 0.0837
RERF-LC-KJ | 0.543 | 0.507 | 0.414 | 0.35 | 0.392
SK-LU-1 | 0.713 | 0.537 | 0.561 | 0.564 | 0.531
SK-MES-1 | 0.273 | 0.238 | 0.217 | 0.213 | 0.208
SW 1573 | 0.547 | 0.406 | 0.585 | 0.484 | 0.484
UMC-11 | 0.981 | 0.841 | 0.787 | 0.725 | 0.84
